Entries after “also recorded” stand apart in the source; their conditions may differ. Each block holds one compound with its values, some of them ahead of it.
How the values were obtained:
[1] = biological target: T1, mSPHK2 (Mus musculus, UniProt Q9JIA7); test: SPHK activity assay with recombinant mSPHK2 (cytosol/lysates of transfected HEK293 cells, [g-32P]ATP, TLC); assay type: biochemical; conditions: for SPHK-dependent phosphorylation by SPHK2 (substrate specificity): lipids 50 mM as printed, cytosol of HEK293 cells transfected with mSPHK2, compared with D-erythro-sphingosine; for salt concentration with maximal stimulation of SPHK2 activity: increasing salt concentration, FIG. 5C
T1 construct: The open reading frames of mSPHK2 and hSPHK2 encode polypeptides of 617 and 618 amino acids, respectively; made in house; host or cells: HEK293 (ATCC CRL-1573), transient transfection; unpurified cytosol or whole lysate
T1 sequence (Q9JIA7 1-617): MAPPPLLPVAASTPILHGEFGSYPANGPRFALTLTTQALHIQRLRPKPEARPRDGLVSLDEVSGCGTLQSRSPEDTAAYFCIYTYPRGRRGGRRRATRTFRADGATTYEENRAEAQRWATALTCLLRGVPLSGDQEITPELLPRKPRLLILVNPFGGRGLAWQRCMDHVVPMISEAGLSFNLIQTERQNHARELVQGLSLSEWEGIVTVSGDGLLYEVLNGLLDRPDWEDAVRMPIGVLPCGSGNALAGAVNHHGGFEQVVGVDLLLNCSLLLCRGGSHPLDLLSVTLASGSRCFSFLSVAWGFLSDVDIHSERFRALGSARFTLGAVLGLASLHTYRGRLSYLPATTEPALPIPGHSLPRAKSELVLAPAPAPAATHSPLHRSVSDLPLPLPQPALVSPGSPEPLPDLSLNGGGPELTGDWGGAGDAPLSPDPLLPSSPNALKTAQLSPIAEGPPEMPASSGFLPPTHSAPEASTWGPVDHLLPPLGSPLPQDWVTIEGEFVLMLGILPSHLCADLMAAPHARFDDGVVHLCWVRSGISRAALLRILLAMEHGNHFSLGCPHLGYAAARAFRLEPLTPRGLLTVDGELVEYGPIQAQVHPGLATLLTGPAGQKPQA
Protocol: Lanes: 1, D-erythro-sphingosine (“D-erythro-Sph”); 2, D-erythro-dihydrosphingosine (“D-erythro-DHS”); 3, D, L-threo-DHS; 4, N,N-dimethylsphingosine (“DMS”); 5, C2-ceramide; 6, C16-ceramide; 7, diacylglycerol; 8, phosphatidylinositol; 9, phytosphingosine. Data are expressed as percentage of phosphorylation of D-erythro-Sph.
SPHK activity in HEK293 cell lysates after transfection as in FIG. 4A was measured with 10 μM D-erythro-sphingosine in the presence of increasing concentrations of DMS.
SPHK activity was measured with varying concentrations of D-erythro-sphingosine in the absence (open circles) or presence of 10 μM (filled squares) or 20 μM DMS (filled triangles).
FIG. 4D are Lineweaver-Burk plots.
(§1) In FIGS. 5B and 5C, the SPHK activity in HEK293 cell lysates was measured 24 hours after transfection with mSPHK1 (FIG. 5B) or mSPHK2 (FIG. 5C) in the absence or presence of increasing concentrations of NaCl (open squares) or KCl (filled circles).
FIG. 5E are Lineweaver-Burk plots of data from FIG. 5D.
(§2) HEK293 cells were transfected with mSPHK1a (open circles) or mSPHK2 (filled circles) and the activities of each in cell lysates were measured after 24 hours in the presence of the indicated concentrations of Triton X-100 (FIG. 6A) or BSA (FIG. 6B).
(§3) HEK293 cells were transfected with mSPHK1a (circles) or mSPHK2 (triangles) and the activities of each in cell lysates were measured after 24 hours in the presence of the indicated concentrations of phosphatidylserine (filled symbols) or phosphatidylcholine (open symbols). Data are expressed as percentage of control activity measured without any additions.
(§4) Human embryonic kidney cells (HEK293, ATCC CRL-1573) and NIH 3T3 fibroblasts (ATCC CRL-1658) were cultured as described in Olivera, A., Kohama, T., Edsall, L. C., Nava, V., Cuvillier, O., Poulton, S., and Spiegel, S., J. Cell Biol., 147 (1999) 545-558. HEK293 cells were seeded at 6×10^5 per well in poly-L-lysine coated 6 well plates. After 24 hours, cells were transfected with 1 μg of vector alone or with vectors containing sphingosine kinase constructs and 6 μl of “Lipofectamine PLUS” reagent plus 4 μl of “Lipofectamine” reagent per well. One to three days after transfection, cells were harvested and lysed by freeze-thawing as described in Kohama, T., Olivera, A., Edsall, L., Nagiec, M. M., Dickson, R., and Spiegel, S., J. Biol. Chem., 273, (1998), 23722-23728. In some experiments, cell lysates were fractionated into cytosol and membrane fractions by centrifugation at 100,000×g for 60 minutes. SPHK activity was determined in the presence of sphingosine, prepared as a complex with 4 mg/ml BSA, and [g-32P] ATP in kinase buffer (Olivera, A. and Spiegel, S. in Methods in Molecular Biology, (Bird, I. M. ed.), (1998), Vol. 105, 233-242, Humana Press, Inc., Totowa, N.J.), containing 200 mM KCl, unless indicated otherwise. 32P-SPP was separated by TLC and quantified with a phosphoimager as previously described.

[2] = biological target: T2, mSPHK1a (Mus musculus, UniProt Q8CI15); test: SPHK activity assay with recombinant mSPHK1a (lysates of transfected HEK293 cells); assay type: biochemical; conditions: for inhibition of SPHK1 activity: salt concentration 200 mM
T2 construct: made in house; host or cells: HEK293 (ATCC CRL-1573), transient transfection; unpurified cell lysate
T2 sequence (Q8CI15 1-381 isoform Q8CI15-3): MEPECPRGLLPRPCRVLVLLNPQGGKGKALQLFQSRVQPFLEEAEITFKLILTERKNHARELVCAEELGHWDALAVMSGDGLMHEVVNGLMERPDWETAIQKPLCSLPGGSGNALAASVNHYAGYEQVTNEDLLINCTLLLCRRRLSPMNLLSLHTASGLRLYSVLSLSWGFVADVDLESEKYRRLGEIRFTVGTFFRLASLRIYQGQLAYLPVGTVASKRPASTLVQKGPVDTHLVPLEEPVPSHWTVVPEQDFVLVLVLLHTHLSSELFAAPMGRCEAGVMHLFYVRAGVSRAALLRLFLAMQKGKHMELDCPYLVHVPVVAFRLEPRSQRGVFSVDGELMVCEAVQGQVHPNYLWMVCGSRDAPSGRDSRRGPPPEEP
Protocol: as §1, §2, §3, §4

[3] = biological target: T2, mSPHK1a; conditions: cited from earlier work; for inhibition of SPHK1: previously shown (Edsall et al. 1998)
[4] = tested on: HEK293 cells; test: SPHK activity in HEK293 cells transiently transfected with SPHK expression vectors (cytosol and particulate fractions); assay type: cell-based, human; conditions: 24 hours after transfection of HEK293 cells
Protocol: In FIG. 3A, HEK 293 cells were transiently transfected with an empty vector or with mSPHK2 or hSPHK2 expression vectors. After 24 hours, SPHK activity was measured in cytosol (open bars) and particulate fractions (filled bars). The data are means±S.D. Parental and vector-transfected cells had basal SPHK activities of 26 and 37 pmol/min/mg, respectively.
as §4

- SPHK-dependent phosphorylation by SPHK2 (substrate specificity) [1]: not phosphorylated
Compound: CCCCCCCCCCCCC/C=C/[C@@H](O)[C@H](CO)NC(C)=O [C2-ceramide]

- SPHK-dependent phosphorylation by SPHK2 (substrate specificity) [1]: not phosphorylated
Compound: CCCCCCCCCCCCC/C=C/[C@@H](O)[C@H](CO)NC(=O)CCCCCCCCCCCCCCC [C16-ceramide]

- phosphorylation by SPHK1 [2]: not phosphorylated at all
- SPHK-dependent phosphorylation by SPHK2 (substrate specificity) [1]: significantly phosphorylated
- SPHK-dependent phosphorylation by SPHK2 (substrate specificity) ([1]; listed as D, L-threo-dihydrosphingosine): to a lesser extent
Compound: CCCCCCCCCCCCCCC[C@H](O)[C@@H](N)CO [D,L-threo-dihydrosphingosine]

- phosphorylation by SPHK1 [2]: not phosphorylated at all
Compound: CCCCCCCCCCCCCC[C@@H](O)[C@@H](O)[C@@H](N)CO [phytosphingosine]
- SPHK-dependent phosphorylation by SPHK2 (substrate specificity) [1]: significantly phosphorylated; also recorded: to a lesser extent

- increase of SPHK1 activity ([2]; Triton X-100 0.5%): more than 4 fold
- effect on SPHK1 activity ([2]; detergent below 0.005%): no effect
- effect on SPHK1 activity ([2]; in words): markedly increased
- effect on SPHK2 activity ([1]; Triton X-100 0.5%): almost completely inhibited
- effect on SPHK2 activity ([1]; detergent below 0.005%): no effect
- effect on SPHK2 activity ([1]; in words): inhibited
Compound: Triton X-100

- SPHK-dependent phosphorylation by SPHK2 (substrate specificity) [1]: not phosphorylated
Compound: diacylglycerol

- effect on SPHK1 activity ([2]; in words): no effect
- effect on SPHK2 activity ([1]; in words): no effect
Compound: phosphatidylcholine [phosphatidyicholine]

- SPHK-dependent phosphorylation by SPHK2 (substrate specificity) [1]: not phosphorylated
Compound: phosphatidylinositol

- effect on SPHK1 activity ([2]; in words): stimulated
- maximal increase of SPHK1 activity ([2]; phosphatidylserine 40 μg/ml): 4 fold
- effect on SPHK2 activity ([1]; in words): stimulated
- maximal increase of SPHK2 activity ([1]; phosphatidylserine 40 μg/ml): 4 fold
Compound: phosphatidylserine

Continued, compound first:

Compound: CCCCCCCCCCCCCCC[C@@H](O)[C@@H](N)CO [D-erythro-dihydrosphingosine]
- SPHK-dependent phosphorylation by SPHK2 (substrate specificity) [1]: better substrate for SPHK2 than D-erythro-sphingosine

Compound: CCCCCCCCCCCCC/C=C/[C@@H](O)[C@@H](N)CO [D-erythro-sphingosine]
- phosphorylation by SPHK1 (substrate rank) ([3]; Kohama et al. 1998): best substrate

Compound: CCCCCCCCCCCCCCC[C@@H](O)[C@@H](N)CO [DHS, dihydrosphingosine]
- SPHK-dependent phosphorylation by SPHK2 (substrate specificity) [1]: even better substrate than D-erythro-sphingosine
- inhibition of SPHK1 [3]: potent competitive inhibitors; also recorded: potent inhibitor

Compound: [Cl-].[K+] [KCl]
- inhibition of SPHK1 activity [2]: 50%
- Km value of mSPHK2 for sphingosine in the presence of KCl ([1]; 50 or 200 mM KCl): not affected
- Vmax of mSPHK2 ([1]; in the presence of 50 mM KCl): 0.3 nmol/min/mg
- Vmax of mSPHK2 ([1]; in the presence of 200 mM KCl): 1 nmol/min/mg
- effect on SPHK2 activity ([1]; in words): dramatically stimulated; also recorded: markedly stimulated
- salt concentration with maximal stimulation of SPHK2 activity [1]: 400 mM

Compound: [Cl-].[Na+] [NaCl]
- inhibition of SPHK1 activity [2]: 50%
- effect on SPHK2 activity ([1]; in words): dramatically stimulated; also recorded: markedly stimulated
- salt concentration with maximal stimulation of SPHK2 activity [1]: 400 mM

Compound: N,N-dimethylsphingosine [DMS]
- inhibition of SPHK2 ([1]; 10 μM D-erythro-sphingosine, increasing concentrations of DMS (FIG. 4B)): potent inhibitor
- manner of inhibition of SPHK2 ([1]; kinetic analysis, FIG. 4C and 4D): non-competitive
- SPHK-dependent phosphorylation by SPHK2 (substrate specificity) [1]: not phosphorylated
- Ki ([1]; recombinant mSPHK2, HEK293 cell lysates, varying D-erythro-sphingosine, 10 or 20 μM DMS, Lineweaver-Burk, read-out: Ki for DMS with SPHK2): 12 µM
- inhibition of SPHK1 [3]: potent competitive inhibitors; also recorded: competitive inhibitor

Compound: mSPHK1: first cloned mammalian (murine) sphingosine kinase, type 1
- increase of in vitro SPHK activity over basal levels [4]: 610 fold

From US6800470B2, “Mammalian sphingosine kinase type 2 isoforms, cloning, expression and methods of use thereof” (Sankyo Company, Ltd., priority 2000, dated 2004)
